Source: patent US20230145342A1, “COMBINATORY TREATMENT” (AALTO UNIVERSITY FOUNDATION SR, priority 2020, published 2023)
≈ marks a conversion by molar mass, not a printed value. Entries after “also recorded” stand apart in the source; their conditions may differ.

Columns and labels:
[1] = system: Pseudomonas aeruginosa 5539; assay: Resistance profile of strain (Table 3); type: cell-based; conditions: strain 5539
[2] = system: Pseudomonas aeruginosa 5834; assay: Resistance profile of strain (Table 3); type: cell-based; conditions: strain 5834
Text: (§1) The effect of P[5]a on the penetration and efficacy of coadministered antibiotics Amikacin (a), Cefepime (b), Ceftazidime (c) and Meropenem (d) in MDR resistant clinical isolates were studied.

[3] = system: Pseudomonas aeruginosa 5542; assay: Resistance profile of strain (Table 3); type: cell-based; conditions: strain 5542 P. aeruginosa
Text: as §1

[4] = system: Pseudomonas aeruginosa 5832; assay: Resistance profile of strain (Table 3); type: cell-based; conditions: strain 5832
Text: as §1

[5] = system: Pseudomonas aeruginosa 2798 (ATCC 2798); assay: Resistance profile of strain (Table 3); type: cell-based; conditions: strain 2798 (ATCC 2798)
Text: as §1

[6] = system: Pseudomonas aeruginosa 5550; assay: Resistance profile of strain (Table 3); type: cell-based; conditions: strain 5550
Text: as §1

[7] = system: Pseudomonas aeruginosa 5827; assay: Resistance profile of strain (Table 3); type: cell-based; conditions: strain 5827
[8] = system: multidrug resistant P. aeruginosa strain PA 5834; assay: MIC of antibiotics without and with P[5]a, Luria broth (sensitizing effect test); type: cell-based, Pseudomonas aeruginosa
Procedure: (§2) Values in blue, yellow and orange indicate the bacterium is categorized as “susceptible”, “intermediate susceptible” and “resistant”, respectively, according to the “Performance Standards for Antimicrobial Susceptibility Testing”, which is maintained by the Clinical and Laboratory Standards Institute.
(§3) So, it was tested whether P[5]a could sensitize (increase the efficacy of) already resistant P. aeruginosa strains PA 5834 (FIG. 4) and PA 5539 (FIG. 5), that are resistant to a wide variety of antibiotics. To test this, two MDR P. aeruginosa strains from clinical isolates were used. These isolates were obtained from patients in the Meilahti hospital (Helsinki, Finland). The antibiotics used, and their different mechanisms of actions, are described in Table 2.
(§4) In FIG. 4 with P. aeruginosa strain PA 5834, P[5]a made the bacterium classify as “susceptible” again, whereas without P[5]a it was fully “resistant” to the antibiotics ceftazidime and cefepime (even growing in the highest concentration we tested). This could have major implications, because there have been many encounters already of “Pan-Drug resistant bacteria” bacteria that are classified as “resistant” to all known antibiotics. They are basically untreatable by current standards. P[5]a Virulence inhibitors, might make those bacteria susceptible again for treatment. In FIG. 5 with P. aeruginosa strain PA 5539, the overall resistance profile of the bacterium was much lower. […] Further testing was done on six resistant P. aeruginosa strains from the Helsinki hospital collection, PA 5550, PA 5842, PA 5827, PA 5832, PA 5834 and PA 5539 with four different antibiotics (amikacin, cefepime, ceftazidime and meropenem).

[9] = system: P. aeruginosa PAO1; assay: Antibiotic resistance buildup, daily MIC over 14 consecutive days; type: cell-based, Pseudomonas aeruginosa
Text: Area below the yellow line means that the bacterium is classified as susceptible to the antibiotic. The area in between yellow and red means that the bacterium is intermediate susceptible to the antibiotic. The area above the red line means that the bacterium is classified as resistant to the antibiotic (According to the “Performance Standards for Antimicrobial Susceptibility Testing”, which is maintained by the Clinical and Laboratory Standards Institute).
Because of this, a combined administration of P[5]a with a variety of antibiotics was tested. MIC values with two different antibiotics, meropenem and cefepime (FIG. 2) were tested, over a period of 14 consecutive days (which more than surpasses the length of normal treatments, 7-10 days), when administered together with and without 2.5 mM P[5]a.
In this experiment, the minimum inhibitory concentration MIC was analyzed daily for 14 consecutive days, and the highest MIC values (so the highest concentration of antibiotic where the bacteria still grew) was used for the next day. This way, the buildup of resistance over time can be monitored. In FIG. 2, the area below the yellow line means that the bacterium is classified as susceptible to the antibiotic, the area in between yellow and red means that the bacterium is intermediate susceptible to the antibiotic and the area above the red line means that the bacterium is classified as resistant to the antibiotic (According to the “Performance Standards for Antimicrobial Susceptibility Testing”, which is maintained by the Clinical and Laboratory Standards Institute).
(§5) The effect of P[5]a on encountering resistance development in a pathogenic Gram-negative bacterium, Pserudomonas aeruginosa, strain PA01 was studied over 14-day period. The development of resistance over 14 continuous days by the pathogen PAO1 towards treatment with four clinically relevant antibiotics (meropenem, cefepime, aztreonam and tobramycin) and P[5]a was compared. […] In all antibiotic treatments, reduced susceptibility was observed from day 4 onwards, with complete resistance to all treatments after 12 days.
The effect of P[5]a on the enhancement of the penetration of coadministered antibiotics having intracellular targets (aztreonam, cefepime, meropenem and tobramycin) was studied over 14-day period in a pathogenic Gram-negative bacterium, Pserudomonas aeruginosa, strain PA01. […] MIC values were categorized in three groups according to the Clinical and Laboratory Standards Institute: susceptible, intermediate susceptible and resistant.

[10] = system: MDR resistant clinical isolates; assay: Coadministered antibiotics with P[5]a in MDR resistant clinical isolates (Example 8); type: cell-based
Text: as §1

[11] = system: resistant P. aeruginosa strains PA 5550, PA 5842, PA 5827, PA 5832, PA 5834 and PA 5539; assay: MIC of four antibiotics in presence or absence of P[5]a, Mueller broth; type: cell-based, Pseudomonas aeruginosa; conditions: six resistant strains, presence vs absence of P[5]a
Text: as §4

[12] = Analytical ultracentrifuge sedimentation velocity analysis of P[5]a with LPS; type: binding, Pseudomonas aeruginosa; conditions: 135 μM P[5]a and 35 μM LPS, UV absorbance at 305 nm
Procedure: A clear initial peak of unbound P[5]a can be observer at low molecular weight (2260 Da), followed by a long and polydisperse collection of peaks, ranging from low molecular weight (S), to very high molecular weight (60.000 kDa) See Example 6.
The interaction of P[5]a with lipopolysaccharides of P. aeruginosa, strain PA10 was measured using AUC.
Analytical ultracentrifugation (AUC) is based on sedimentation of colloidal particles in a centrifugal field. During centrifugation particles move toward the bottom of the measuring cell. This movement leads to redistribution of particles along the measuring cell, which in turn can be expressed as a change in concentration along the measuring cell. The absorbance detector was used to follow the changes caused by centrifugation (absorbance is proportional to concentration). In simple words, in AUC the inventors measure how concentration changes during centrifugation, so they collect concentration profiles. Interaction between particles can be measured as a result of changes in the sedimentation profiles. […]
The spectra of both P[5]a and LPS from P. aeruginosa were first analysed separately (see FIG. 12 a and b). […] Because only the sedimentation of P[5]a was detected at 305 nm, the inventors were certain that any changes observed in the sedimentation profile, come from interactions between P[5]a and other particles. […]

[13] = system: Pserudomonas aeruginosa, strain PA01; assay: Biofilm formation; type: cell-based, Pseudomonas aeruginosa; conditions: P[5]a in high concentrations
Procedure: The effect of P[5]a on the formation of biofilm by a pathogenic Gram-negative bacterium, Pserudomonas aeruginosa, strain PA01 was measured.
Biofilm is, alongside pyocyanin production, an important indicator of virulence in P. aeruginosa.

[14] = system: P. aeruginosa PAO1; assay: Pyocyanin toxin production followed over 14 days; type: cell-based, Pseudomonas aeruginosa; conditions: for pyocyanin toxin formation: throughout 14 days
Text: as §5

[15] = system: Pseudomonas aeruginosa; assay: RNA sequencing / Gene Set Enrichment Analysis with and without P[5]a; type: cell-based; conditions: bacterial RNA with vs without P[5]a
Text: Changes in gene expression levels are grouped in specific “gene sets”, which group all genes related to a specific function, for instance biofilm formation.
Pseudomonas aeruginosa is known to be one of the most problematic pathogenic micro-organisms. Indeed, in a laboratory environment, P. aeruginosa is resistant to nearly all antibiotics within a period of 3 to 4 days. Comparing the sequencing results of the bacterial RNA, with and without a pillarene[5]a (P[5]a, CAS No. 1351445-28-7), allowed the inventors to identify the processes that are affected by comparison with pre-determined gene set terms from the “KEGG pathway analysis” and the “GO Ontology” (see FIG. 1). These gene sets contain all the genes associated with a certain term, for instance “Biofilm”, and the inventors referenced all the genes affected by P[5]a, to these gene sets.

[16] = system: multidrug resistant P. aeruginosa strain PA 5539; assay: MIC of antibiotics without and with P[5]a, Luria broth (sensitizing effect test); type: cell-based, Pseudomonas aeruginosa; conditions: with vs without P[5]a
Procedure: as §2, §3, §4

Structure (SMILES)	Antibiotic resistance (category) [1]	Antibiotic resistance (value given with the category, MIC) [1] [µg]	Antibiotic resistance (category) [2]	Antibiotic resistance (value given with the category, MIC) [2]	Antibiotic resistance (category) [3]	Antibiotic resistance (value given with the category, MIC) [3] [µg]	Antibiotic resistance (category) [4]	Antibiotic resistance (value given with the category, MIC) [4] [µg]	Antibiotic resistance (category) [5]	Antibiotic resistance (category) [6]	Antibiotic resistance (value given with the category, MIC) [6] [µg]	Antibiotic resistance (category) [7]	Antibiotic resistance (value given with the category, MIC) [7] [µg]	susceptibility classification (CLSI) ([8]; with P[5]a)	susceptibility classification (CLSI) ([8]; without P[5]a)	other results
CC(C)(O/N=C(\C(=O)N[C@@H]1C(=O)N2C(C(=O)[O-])=C(C[n+]3ccccc3)CS[C@H]12)c1csc(N)n1)C(=O)O [ceftazidime, Ceftazidime]	resistant	8	resistant	cefepime 64 ug, ceftazidime 64 ug and meropenem 64 ug	resistant	32	resistant	16	Aztreonam & Cefepime, Resistant to Ceftazidime, Cirpofloxacin,	resistant	16	resistant	64	susceptible	resistant	
CO/N=C(\C(=O)N[C@@H]1C(=O)N2C(C(=O)[O-])=C(C[N+]3(C)CCCC3)CS[C@H]12)c1csc(N)n1 [cefepime, Cefepime]	intermediate	8	resistant	cefepime 64 ug, ceftazidime 64 ug and meropenem 64 ug	resistant	32	Intermediate susceptible	8	Intermediate susceptible	Intermediate susceptible	16	resistant	32	susceptible	resistant	MIC ([9]; Pseudomonas aeruginosa, PAO1, 96 h, after four days, highest concentration of antibiotic included): 128 µg/mL (≈ 266 µM); development of resistance by the pathogen to the respective antibiotic ([9]; coadministration of P[5]a with the antibiotic, 14-day period): greatly slowed
C[N+](C)(C)CCOc1cc2c(OCC[N+](C)(C)C)cc1Cc1cc(OCC[N+](C)(C)C)c(cc1OCC[N+](C)(C)C)Cc1cc(OCC[N+](C)(C)C)c(cc1OCC[N+](C)(C)C)Cc1cc(OCC[N+](C)(C)C)c(cc1OCC[N+](C)(C)C)Cc1cc(OCC[N+](C)(C)C)c(cc1OCC[N+](C)(C)C)C2.[Br-].[Br-].[Br-].[Br-].[Br-].[Br-].[Br-].[Br-].[Br-].[Br-] [P[5]a, 4,9,14,19,24,26,28,30,32,34-Deca[2-(trimethylammonio)ethoxy]hexacyclo[21.2.2.2^3,6.2^8,11.2^13,16.2^18,21]pentatriaconta1(25),3,5,8,10,13,15,18,20,23,26,28,30,32,34-pentadecaene ⋅ 10bromide]																penetration and efficacy of coadministered antibiotics Amikacin, Cefepime, Ceftazidime and Meropenem [10]: enhances; sensitizing effects on amikacin, cefepime, ceftazidime and meropenem [11]: In all cases the sensitizing effects were observed; interaction with LPS [12]: strong interaction; also recorded: capable of interacting with multiple LPS particles; biofilm formation [13]: significantly reduced; resistance development towards P[5]a (decrease of effectivity of toxin inhibition) ([14]; 14-day period): does not encounter resistance development; also recorded: no observable decrease of effectivity; pyocyanin toxin formation [14]: successfully suppressed; bacterial viability ([14]; throughout 14 days of P[5]a treatment): no decrease; pyocyanin toxin formation ([14]; listed as P5a): very efficient in suppressing; bacterial antibiotic resistance genes (MexCD-OprJ, MexAB-OprM, mexXY) [15]: significantly down-regulates; gene sets associated with virulence factors (Biofilm, Quorum Sensing, Bioverdine biosynthetic process, Biosynthesis of Secondary Metabolites) ([15]; KEGG and GO gene sets): downregulated; sensitizing effect on antibiotics [16]: sensitizing effect could be seen with nearly all antibiotics; direct antimicrobial properties [9]: lacks direct antimicrobial properties; buildup of resistance to meropenem and cefepime when P[5]a is added ([9]; 2.5 mM P[5]a, 14 consecutive days): significantly reduced
